According to US8258100B2, “Ligand/lytic peptide methods of use” (Board of Supervisors of Louisiana State University and …, priority 1997, dated 2012):
Where no end group is shown, it is not given here.

Experiments:
female rabbits = experiment: mature female rabbits, intravenous GnRH-hecate, GnRH challenge day 6, sacrifice day 7; type: in vivo, rabbit; details: 10 mg IV
Procedure: Nine sexually mature female rabbits were injected intravenously with saline containing 0 mg (n=4) (Treatment 46) or 10 mg GnRH-hecate (n=5) (Treatment 47). Rabbits were injected intramuscularly with GnRH on day 6 posttreatment. Blood samples were collected for radioimmunoassay of LH and FSH as described above, and the animals were sacrificed on day 7 post-treatment. […] The effects of GnRH-hecate on CNS morphology and immunocytochemical results were similar to those described above in Examples 34-45. Again, the effects were more pronounced on GnRH neurons than on staining of pituitary gonadotropes.

[1] = system: sexually immature female rats; experiment: immature female rats, intravenous GnRH-hecate dose series; type: in vivo, rat; details: 0.1 to 1.5 mg IV, 24 hours or 14 days
Procedure: Sexually immature (33 day old) female rats (randomly allocated into groups of three) were injected intravenously with saline or GnRH-hecate in saline as follows:
Animals were sacrificed at 24 hours or at 14 days after treatment. […] In the rats sacrificed fourteen days after treatment, 66% and 87% of the GnRH-receptor-containing neurons were abnormal in the rats that had received 1.0 and 1.5 mg of GnRH-hecate, respectively. Axonal degeneration in the 1.5 mg GnRH-hecate group was accompanied by over 90% reduction in median eminence staining for GnRH.

[2] = system: sexually immature female rats; experiment: immature female rats, intravenous GnRH-hecate or GnRH then hecate, histology and immunocytochemistry at 14 days; type: in vivo, rat; details: as E29
Procedure: Another set of experiments was performed to study the in vivo effects of the GnRH-hecate conjugate on female rats and rabbits. The ovaries, uterus, oviducts, adrenals, spleen, thyroids, pancreas, liver, lungs, and heart were processed for histological analysis. […] The immunocytochemical staining procedures we used followed generally the procedures of M. Rahmanian et al., “Histological and immunocytochemical characterization of pituitary cell types in ponies,” Proc. 13th Soc. Equine Nutrition & Phys. Symp., pp. 348-349 (1993); M. Rahmanian et al., “Immunocytochemical localization of luteinizing hormone and follicle-stimulating hormone in the equine pituitary,” J. Anim. Sci., vol. 76, pp. 839-846 (1998); M. Rahmanian et al., “Immunocytochemical localization of prolactin and growth hormone in the equine pituitary,” Animal Sci., vol. 75, pp. 3010-3018 (1997); and P. Melrose et al., “Comparative topography of the immunoreactive alpha-melanocyte-stimulating hormone neuronal system in the brains of horses and rats,” Brain Beh. & Evol., vol. 32, pp. 226-235 (1988).
Brains were serially sectioned on a Vibrotome from the level of the diagonal band of Broca to the mammillary body. […]

Diatraea saccharalis = experiment: fertility of sugar cane borer after inoculation of late-stage pupae; type: in vivo; details: 10 pupae inoculated, 1.0 μL of 1.35 mM peptide in saline
Procedure: Late-stage Diatraea saccharalis (sugar cane borer) pupae were inoculated with 1.0 μL of saline solution containing 1.35 mM concentration of peptide as stated, or saline alone as control. The pupae were allowed to complete metamorphosis. […] Adult female moths were allowed to mate with treated males, and then lay eggs. The viability of the eggs was measured by counting the number hatching into larvae.

[3] = system: female New Zealand rabbits; experiment: mature female New Zealand rabbits, intravenous GnRH-hecate, GnRH challenge day 46, necropsy day 47; type: in vivo, rabbit; details: 5 or 10 mg IV
Procedure: Seven sexually mature female New Zealand rabbits were injected intravenously with saline containing GnRH-hecate as follows:
Forty-six days later all rabbits were injected intramuscularly with 100 μg GnRH. Blood samples were collected at 0, 1, 4, and 24 hours, and LH and FSH levels in the blood samples were measured by radioimmunoassay. […] The rabbits were sacrificed the next day (day 47) for postmortem histological analysis. […] Ovarian and pituitary weights were reduced by the 10 mg GnRH-hecate treatment.

[4] = system: Sprague-Dawley female rats; experiment: Sprague-Dawley female rats, single intravenous treatment, necropsy at 48 or 96 hours, PAS stain of pituitary; type: in vivo, rat; details: D-hecate 674 μg, GnRH 334 μg, GnRH-hecate 1 mg
Procedure: Eight sexually mature, Sprague-Dawley female rats were randomly assigned to one of eight treatments. Each group of rats received a single treatment intravenously, as described below. Rats were sacrificed and necropsied either 48 or 96 hours after treatment. The ovaries, uterus, pancreas, liver, spleen, lungs, heart, thyroid, and adrenal glands were fixed in 10% buffered formalin; sectioned; and stained with H&E (hematoxylin and eosin) stain; except that the pituitary glands were stained with PAS (periodic acid-Schiff) stain with no counter-stain. The treatments were selected so that each animal received an equimolar amount of the compound with which it was treated.

DU145 cells = experiment: in vitro lysis of human prostate cancer cells, Trypan blue exclusion; type: cell-based; details: 22 hours; GnRH-hecate 50 μM; free hecate 30 μM; hecate-bLH 90 or 60 μM
Excerpt: LNCaP FGC and DU145 human prostate cancer cell lines were purchased from the American Type Culture Collection (ATCC, Rockville Md.), ATCC accession numbers CRL 1740 and HTB-81, respectively. The LNCaP FGC adenocarcinoma cell line was originally obtained from a person. LNCaP FGC cells are sensitive to dihydrotestosterone and to estrogens (A+). The DU145 carcinoma was originally isolated from the brain of a person with metastatic carcinoma of the prostate; this cell line is not sensitive to steroid hormones (A−).
Cells were detached from culture flasks, and 1000 cells/well were transferred to 24 well culture plates. The cells were incubated for 24 hours with 10% calf serum. Cells were subsequently incubated without serum for 48 hours. Cells were then incubated for 22 hours with one of the following treatments:
Trypan blue exclusion was used to assess viability of the cells after treatment. […] However, treatment with a lytic peptide alone may not be selective in vivo unless specific cell types are separately stimulated, for example by hormones controlling their activity.

bovine granulosa cells = experiment: in vitro lysis of bovine granulosa cells; type: cell-based; details: hecate alone, versus small luteal cells
Excerpt: We also studied in vitro lysis of bovine granulosa cells with GnRH-hecate conjugate and with hecate-bLH conjugate. Granulosa cells were isolated from bovine pre-ovulatory follicles. (Granulosa cells are hormonally active cells with numerous LH receptors.) Our experiments with granulosa cells were otherwise generally similar to those described above for Examples 24-31.

[5] = system: sexually mature female rats; experiment: sexually mature female rats, double intravenous treatment, necropsy two weeks later; type: in vivo, rat; details: IV twice 24 hours apart, two weeks after, GnRH/hecate 2 x 0.5 mg, GnRH 162 μg then 15 minutes later hecate 337 μg
Excerpt: Eighteen sexually mature, mixed breed, female rats were randomly assigned to one of six groups containing three rats each. Each group of rats received a double treatment intravenously, as described below. Two weeks after the treatment, the rats were sacrificed and necropsied. The reproductive and endocrine organs were sectioned, weighed, and examined histologically.

[6] = system: pituitary basophilic (gonadotropic) cells; experiment: rat pituitary gland sections in tissue culture, histology after treatment; type: cell-based; details: ten hours after treatment, 37° C.; GnRH 5 ng/mL; hecate 50 μM; GnRH 5 ng/mL 15 minutes, wash, then hecate 50 μM; modified GnRH/hecate 50 μM
Procedure: The pituitary gland of an adult female rat was harvested and divided into six sections of approximately equal size. One section was placed in each of six wells containing tissue culture medium at 37° C. A different treatment was applied to each well, as described below. Ten hours after treatment, the tissue from each well was fixed, and the histology of each was examined microscopically.

[7] = system: bovine small luteal cells; experiment: in vitro lysis of bovine small luteal cells (Trypan Blue exclusion, lactic dehydrogenase release); type: cell-based, cattle; details: 22 hr incubation
Procedure: We studied in vitro lysis of bovine luteal cells with GnRH-hecate conjugate and with hecate-bLH conjugate (SEQ. ID NO. 12). (The bLH component of the conjugate is a 15-mer fragment of the beta chain of luteinizing hormone, SEQ. ID NO. 11). Small luteal cells were collected from cattle corpora lutea post-slaughter.
Small luteal cells in culture were incubated with one of the following treatments for 22 hours, and were then examined for viability using Trypan Blue exclusion and release of lactic dehydrogenase.

Substance	effects on peripheral tissues or pituitary weight (female rabbits)	VP staining in the CNS [1]	C1 and C3 fields of the hippocampus [2]	pathological changes in other tissues [2]	pupae completing metamorphosis into adult moths (Diatraea saccharalis)	hippocampus and other areas of the brain containing high concentrations of GnRH [3]	gross lesions in the organs [4]	killing of cells (viability) (DU145 cells)	susceptibility of granulosa cells to killing (bovine granulosa cells)	ovarian function / histology [5]	histology of pituitary tissue after treatment [6]	cell death of small luteal cells ([7]; 1 μM)	killing of small luteal cells ([7]; 5 μM)	killing of small luteal cells ([7]; 10 μM)
QHWSYGLRPGFALALKALKKALKKLKKALKKAL [GnRH-hecate]	No effects were noticed	not altered	histological damage to cells	No pathological changes were noted in any other tissues	Eight	not discernibly affected	No gross lesions were noted in the organs of any of the four animals, other than the pituitary							
hecate: amphipathic lytic peptide; synthetic peptide analog of melittin (SEQ. ID NO. 2) (FALALKALKKALKKLKKALKKAL) [reference compound]								killed by hecate alone	much more susceptible to killing by hecate alone than were the small luteal cells	normal ovarian function	appeared normal	did not differ significantly from negative control	approximately 50%	Significant killing
